In patent US20210186879A1, “TARGETED DELIVERY OF HYDROPHILIC DRUGS TO LUNG” (DOUBLE BOND PHARMACEUTICALS AB, priority 2016, published 2021):

Tests used:
[1] = rat, in vivo, iv, 5 mg/kg
[2] = In vivo distribution of doxorubicin in lung and blood serum of Wistar rats; settings: 4 hours
Description: (§1) For in vivo investigation both rats and rabbits were used: female Wistar rats 60-75 days old weighing 300 g±30 g and Californian breed male rabbits 75-90 days old weighing 2000 g±250 g were selected. […] Different doxorubicin containing formulations with a total doxorubicin dose 5 mg/kg were administered via a single bolus injection into the tail for rats and via a slow flow of 1 ml/min in the marginal ear vein for rabbits.
(§2) Five or six pieces of lung tissue of a total weight of about 1 g were taken from different parts of a lung. The samples were homogenized with a solution of aqueous ethanol containing HCl for 20 s at 7000 rpm and for 10 s at 11000 rpm. […] Doxorubicin and doxycycline (DOC) concentration in the final supernatant was determined with fluorometric analysis and high-performance liquid chromatography respectively.
An aqueous solution of doxorubicin hydrochloride, an aqueous suspension of doxorubicin alkane sulfate and an aqueous suspension of doxorubicin alkyl sulfonate were administered via a single bolus injection into the tail Animals were sacrificed after 4 hours after administered via a single bolus injection into the tail; total doxorubicin dose 5 mg/kg. […] The results are summarized in Table 7 and illustrated in FIG. 10.

[3] = In vivo distribution of doxorubicin in lung and femoral muscle of Californian rabbits; settings: 4 hours
Description: as §1, §2
Suspension of complexes of doxorubicin and doxorubicin hydrochloride were administered via a slow flow of 1 ml/min to rabbits in the marginal ear vein with a total doxorubicin dose 1.25 mg/kg. Animals were sacrificed after 4 hours after administration. Concentration of doxorubicin in lung and femoral muscle was determined in accordance to the procedure described above. As it is seen from table 8 the concentration of doxorubicin in femoral muscle as a representation of a system concentration is not increased for complexes compared with doxorubicin hydrochloride.

[4] = cited from earlier work
[5] = 5 mg/kg i.v. single bolus, ± SD
[6] = 1.25 mg/kg i.v. marginal ear vein, ± SD

Row | Structure (SMILES) | Particle size particularly advantageous in targeting lung tissue [1] | Blood serum DOX [2, 5] [µg/kg] | Lung tissue DOX [2, 5] [µg/kg] | Blood serum Relative difference ([2]; relative to control CI-DOX (1)) | Lung tissue Relative difference ([2]; relative to control CI-DOX (1)) | Femoral muscle DOX [3, 6] [µg/kg] | Lung tissue DOX [3, 6] [µg/kg] | Femoral muscle Relative difference ([3]; relative to control CI-DOX (1)) | Lung tissue Relative difference ([3]; relative to control CI-DOX (1)) | Cumulative dose at which the risk of developing cardiac side effects increases dramatically [4] [mg/m^2]
1 | CCCCCCCCCCCCCCOS(=O)(=O)O.COc1cccc2c1C(=O)c1c(O)c3c(c(O)c1C2=O)CC(O)(C(=O)CO)CC3OC1CC(N)C(O)C(C)O1 (stereo not shown) [doxorubicin CnH2n+1OSO3^− n=14] | 40-90 μm | 0.023 ± 0.009 | 3.17 ± 0.33 | 1.21 | 4.46 | 0.06 ± 0.01 | 6.14 ± 0.53 | 0.26 | 7.40 | –
2 | COc1cccc2c1C(=O)c1c(O)c3c(c(O)c1C2=O)C[C@@](O)(C(=O)CO)C[C@@H]3O[C@H]1C[C@H](N)[C@H](O)[C@H](C)O1 [doxorubicin] | – | – | – | – | – | – | – | – | – | ≥ 550
